Our source for the Activity, Kinact and Ki values is ChEMBL document CHEMBL1641567, “Oxidative inactivation of the lymphoid tyrosine phosphatase mediated by both general and active site directed NO donors” (Bioorg Med Chem Lett, 2011).

The target of assay [1] is T1, Tyrosine-protein phosphatase non-receptor type 22 (Homo sapiens) (UniProt Q9Y2R2).
T1 sequence (whole entry): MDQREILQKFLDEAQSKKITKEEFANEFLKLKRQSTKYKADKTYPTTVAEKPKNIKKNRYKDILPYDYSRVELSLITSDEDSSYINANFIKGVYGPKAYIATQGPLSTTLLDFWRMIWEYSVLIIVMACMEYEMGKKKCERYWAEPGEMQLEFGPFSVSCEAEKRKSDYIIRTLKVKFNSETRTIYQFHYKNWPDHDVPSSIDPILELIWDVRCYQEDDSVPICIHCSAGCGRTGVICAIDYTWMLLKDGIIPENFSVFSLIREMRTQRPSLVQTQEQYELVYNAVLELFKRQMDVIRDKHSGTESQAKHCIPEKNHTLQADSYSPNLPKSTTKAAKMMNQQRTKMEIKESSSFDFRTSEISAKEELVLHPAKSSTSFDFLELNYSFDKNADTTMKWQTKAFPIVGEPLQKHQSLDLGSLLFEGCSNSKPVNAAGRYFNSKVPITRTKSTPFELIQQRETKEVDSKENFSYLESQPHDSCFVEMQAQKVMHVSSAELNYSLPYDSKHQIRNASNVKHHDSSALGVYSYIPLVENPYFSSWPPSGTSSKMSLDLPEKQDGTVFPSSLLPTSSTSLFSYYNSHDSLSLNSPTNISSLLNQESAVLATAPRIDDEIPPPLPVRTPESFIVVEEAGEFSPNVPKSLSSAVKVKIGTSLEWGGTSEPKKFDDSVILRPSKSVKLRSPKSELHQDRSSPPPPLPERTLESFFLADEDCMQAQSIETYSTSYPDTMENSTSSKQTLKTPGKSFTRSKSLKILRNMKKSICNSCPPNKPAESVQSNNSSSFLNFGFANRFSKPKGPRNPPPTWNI
Nature of the assay: Oxidative inactivation of lymphoid tyrosine phosphatase at 1 to 100 uM by DiFMUP assay. The note with it: TDE = time-dependent effect.

For assay [2], the target named is T1, Tyrosine-protein phosphatase non-receptor type 22 (Homo sapiens). Put plainly: (§1) Oxidative inactivation of lymphoid tyrosine phosphatase by DiFMUP assay.
Assay [3] concerns the target T2, Tyrosine-protein phosphatase non-receptor type 22 (Homo sapiens, UniProt Q9Y2R2).
T2 sequence (Q9Y2R2 whole entry): T1 sequence (whole entry)
The description is as §1.

In assay [4] the target is T1, Tyrosine-protein phosphatase non-receptor type 22 (Homo sapiens). Put plainly: Oxidative inactivation of lymphoid tyrosine phosphatase by DiFMUP assay in presence of L-cysteine.
Assay [5] has the same target. Nature of the assay: Oxidative competitive inactivation of lymphoid tyrosine phosphatase by Lineweaver-Burk plot.
For assay [6] the target is unchanged. Put plainly: Oxidative inactivation of lymphoid tyrosine phosphatase assessed as NO release by ESI-MS spectrum.

Active and inactive are the calls of the source. The rule behind the calls is not given here. Starred links: 1 amine or outer side, 2 acyl side, 3 side chain; linkers in the order of their positions; H or OH if unused. Non-standard residues stand in square brackets, D forms with d. Residues, ends and D or L forms follow the SMILES beside them. X1 = O=NSCC[C@H](N[*:1])C(=O)[*:2]

On to `CC[C@H](C)[C@H](NC(=O)[C@H](CC(C)C)NC(=O)[C@H](CCCNC(=N)N)NC(=O)[C@H](C)NC(C)=O)C(=O)N[C@@H](CCC(=O)O)C(=O)N[C@@H](CC(=O)O)C(=O)N[C@@H](CC(N)=O)C(=O)N[C@@H](CCC(=O)O)C(=O)N[C@@H](CCSN=O)C(=O)N[C@H](C(=O)N[C@@H](C)C(=O)N[C@@H](CCCNC(=N)N)C(=O)N[C@@H](CCC(=O)O)C(=O)NCC(N)=O)[C@@H](C)O` (Ac-ARLIEDNE[X1]TAREG-NH2), for which the values for the Activity result in assay [1] and in assay [2] were “tde” and “Dose-dependent effect”, respectively. The same compound displayed a Kinact in assay [2] of 0.0472 min⁻¹. The compound further had a Ki in assay [3] of 7 µM. For the same compound, in assay [4], the result was inactive. The outcome in assay [5] and in assay [6] was Active.
